Measurements taken from patent publication US12514266B2, “Composition containing quercetagetin” (Chenguang Biotech Group Co., Ltd., priority 2020, dated 2026).

Columns and labels:
[1] = Determination of DPPH free radical scavenging ability; format: biochemical; conditions: absolute ethanol, 30° C., 30 min, 517 nm
Procedure: (§1) Each of the composition of Examples 9-17, as well as single-component quercetagetin, 6-hydroxykaempferol, patuletin was taken, and the detection of DPPH and hydroxyl radical scavenging ability was performed. The specific test methods are as follows.
[…], 6-hydroxykaempferol, patuletin, and compositions 9-17 were used to prepare sample solutions with concentrations of 1, 2, 3, 4, 5, and 6 μg/ml in absolute ethanol. Then, DPPH was prepared into a 2×10^−4 mol/L solution with absolute ethanol, and 2 mL of blank and sample solution were accurately absorbed and mixed with 2 mL of DPPH solution, respectively, the resultants were placed in a water bath at 30° C. in the dark for 30 min, and the absorbance A (blank) and Asample (sample) were measured at the wavelength of 517 nm.

[2] = Determination of hydroxyl radical scavenging ability (salicylic acid method); format: biochemical; conditions: 37° C., 15 min, 510 nm
Procedure: as §1
Quercetin, 6-hydroxykaempferol, patuletin, and compositions 9-17 were used to prepare sample solutions with concentrations of 100, 150, 200, 250, 300 μg/ml in absolute ethanol. 9 mmol/L salicylic acid-ethanol solution, 9 mmol/L FeSO4 solution and 8.8 mmol/L H2O2 solution were prepared. Then, different samples were added according to the order in the following table, and placed in a water bath at 37° C. for 15 min, and the absorbance at 510 nm was measured.

[3] = Antioxidant effect in fish oil powder (peroxide value); conditions: 40° C., 28 days; for Peroxide value of fish oil powder with an addition amount of 10 ppm: 10 ppm (based on active ingredients); for Peroxide value of fish oil powder with an addition amount of 100 ppm: 100 ppm (based on active ingredients)
Procedure: After the antioxidant and fish oil powder were evenly mixed, the resultants were placed in an incubator at 40° C., and samples were taken in 28 days to measure the peroxide value.

[4] = Antioxidant effect in lipids: peroxide value of butter; conditions: 150 ppm
Procedure: 5 parts of chicken oil and butter were taken respectively, each of which is 100 grams. Each 3 groups of chicken oil experimental groups and butter experimental groups were set up, and the composition of Example 6 was added according to the addition amount of 4, 6 and 8 ppm respectively; each 1 group of chicken oil control group and butter control group were set up, and ethoxyquin was added in an addition amount of 150 ppm; each 1 group of chicken oil blank group and butter blank group were set up, without adding any additives. The additives in each group were mixed evenly with the lipid, placed in a constant temperature incubator at 40° C., and samples were taken at 0, 3, 7, 14, 21 and 28 days to determine their peroxide value.

Row | Structure (SMILES) | DPPH (IC50 μg/ml), half clearance [1] | Hydroxyl radical scavenging ability (IC50 μg/ml), half clearance [2] | Peroxide value of fish oil powder with an addition amount of 10 ppm [3] | Peroxide value of fish oil powder with an addition amount of 100 ppm [3] | peroxide value of butter ([4]; Day 0, 40° C.) | peroxide value of butter ([4]; Day 3, 40° C.) | peroxide value of butter ([4]; Day 7, 40° C.) | peroxide value of butter ([4]; Day 14, 40° C.) | peroxide value of butter ([4]; Day 21, 40° C.) | peroxide value of butter ([4]; Day 28, 40° C.)
1 | O=c1c(O)c(-c2ccc(O)c(O)c2)oc2cc(O)c(O)c(O)c12 [Quercetagetin, 3,3,4,5,6,7-hexahydroxyflavone] | 14.82 µg/mL | 412 µg/mL | 76.5 mmol/kg | 57.3 mmol/kg |  |  |  |  |  | 
2 | CCOc1ccc2c(c1)C(C)=CC(C)(C)N2 [Ethoxyquin, ethoxyquin] |  |  |  |  | 1.41 ± 0.15 mmol/kg | 1.44 ± 0.142 mmol/kg | 1.62 ± 0.104 mmol/kg | 1.66 ± 0.075 mmol/kg | 1.82 ± 0.1 mmol/kg | 2.02 ± 0.197 mmol/kg
3 | COc1c(O)cc2oc(-c3ccc(O)c(O)c3)c(O)c(=O)c2c1O [Patuletin, patuletin] | 31.98 µg/mL | 595 µg/mL | 120 mmol/kg | 109 mmol/kg |  |  |  |  |  | 
4 | O=c1c(O)c(-c2ccc(O)cc2)oc2cc(O)c(O)c(O)c12 [6-hydroxykaempferol] | 23.62 µg/mL | 500 µg/mL | 142 mmol/kg | 121 mmol/kg |  |  |  |  |  | 
